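Where inhibition never reached the appropriate level, the endpoint shown equals the highest concentration tested. Otherwise, values were interpolated linearly from a five-concentration, 48-hour dose response in 96-well plates. GI50 marks 50% less growth. TGI marks complete inhibition of growth.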
Tests used:
Assay in all cases: inhibition of tumour cell growth, NCI panel, 48 h
[1] = system: SR leukemia
[2] = system: NCI/ADR-RES ovarian
[3] = system: K-562 leukemia
[4] = system: M14 melanoma
[5] = system: SW-620 colon
[6] = system: A549 NSCLC
[7] = system: SK-MEL-2 melanoma
[8] = system: NCI-H460 lung
[9] = system: SK-MEL-28 melanoma
[10] = system: HOP-62 NSCLC
[11] = system: SNB-19 CNS
[12] = system: PC-3 prostate
[13] = system: A498 renal
[14] = system: SN12C renal
[15] = system: SF-268 CNS
[16] = system: OVCAR-8 ovarian
[17] = system: LOX IMVI melanoma
[18] = system: TK-10 renal
[19] = system: OVCAR-4 ovarian
[20] = system: HCT-116 colon
[21] = system: MDA-MB-231 breast
[22] = system: UO-31 renal
[23] = system: DU-145 prostate
[24] = system: COLO 205 colon
[25] = system: CAKI-1 renal
[26] = system: SK-MEL-5 melanoma
[27] = system: UACC-257 melanoma
[28] = system: U251 CNS
[29] = system: CCRF-CEM leukemia
[30] = system: SF-295 CNS
[31] = system: MCF7 breast
[32] = system: OVCAR-3 ovarian
[33] = system: HOP-92 NSCLC
[34] = system: MALME-3M melanoma
[35] = system: T-47D breast
[36] = system: OVCAR-5 ovarian
[37] = system: RPMI-8226 leukemia
[38] = system: SF-539 CNS
[39] = system: BT-549 breast
[40] = system: SNB-75 CNS
[41] = system: EKVX NSCLC
[42] = system: HT29 colon
[43] = system: SK-OV-3 ovarian
[44] = system: HCC-2998 colon
[45] = system: UACC-62 melanoma
[46] = system: IGROV1 ovarian
[47] = system: HS 578T breast
[48] = system: MDA-MB-435
[49] = system: 786-0 renal
[50] = system: HCT-15 colon
[51] = system: RXF 393 renal
[52] = system: NCI-H226 lung
[53] = system: ACHN renal
[54] = system: KM12 colon
[55] = system: NCI-H23 lung
[56] = system: MOLT-4 leukemia
[57] = system: NCI-H522 lung

SMILES: CCOC(=O)c1c(C)n(Cc2ccccc2)c2c1cc(O)c1[nH]c(Cc3ccccc3)nc12
- GI50 [1]: 3.23 µM
- TGI [1]: 25.3 µM
- GI50 [2]: 18.9 µM
- TGI [2]: > 57.9 µM
- GI50 [3]: 0.679 µM
- TGI [3]: > 40 µM
- GI50 [4]: > 50.7 µM
- TGI [4]: > 100 µM
- GI50 [5]: 22.1 µM
- TGI [5]: > 60 µM
- GI50 [6]: 12.4 µM
- TGI [6]: 65.7 µM
- GI50 [7]: 26.7 µM
- TGI [7]: > 100 µM
- GI50 [8]: 4.23 µM
- TGI [8]: > 100 µM
- GI50 [9]: 24.3 µM
- TGI [9]: > 100 µM
- GI50 [10]: 17.4 µM
- TGI [10]: > 85.6 µM
- GI50 [11]: 23.6 µM
- TGI [11]: > 67.9 µM
- GI50 [12]: 7.88 µM
- TGI [12]: > 100 µM
- GI50 [13]: 28.5 µM
- TGI [13]: > 86.1 µM
- GI50 [14]: 10.5 µM
- TGI [14]: 39.8 µM
- GI50 [15]: 13.8 µM
- TGI [15]: > 100 µM
- GI50 [16]: 29.6 µM
- TGI [16]: > 100 µM
- GI50 [17]: 13.8 µM
- TGI [17]: > 67.8 µM
- GI50 [18]: 1.5 µM
- TGI [18]: 54.5 µM
- GI50 [19]: 10.9 µM
- TGI [19]: > 57.3 µM
- GI50 [20]: 5.91 µM
- TGI [20]: > 43.5 µM
- GI50 [21]: 20.1 µM
- TGI [21]: > 85.9 µM
- GI50 [22]: > 32.9 µM
- TGI [22]: > 51.4 µM
- GI50 [23]: 20.5 µM
- TGI [23]: > 57.7 µM
- GI50 [24]: 24.7 µM
- TGI [24]: > 54.8 µM
- GI50 [25]: 7.77 µM
- TGI [25]: 21.8 µM
- GI50 [26]: 9.89 µM
- TGI [26]: 39.1 µM
- GI50 [27]: 16.2 µM
- TGI [27]: > 70.2 µM
- GI50 [28]: 7.46 µM
- TGI [28]: 33 µM
- GI50 [29]: > 21.4 µM
- TGI [29]: > 100 µM
- GI50 [30]: 11.3 µM
- TGI [30]: 44.4 µM
- GI50 [31]: 7.4 µM
- TGI [31]: > 53.1 µM
- GI50 [32]: 11.4 µM
- TGI [32]: 44 µM
- GI50 [33]: 20.2 µM
- TGI [33]: 68.8 µM
- GI50 [34]: 9.93 µM
- TGI [34]: 58 µM
- GI50 [35]: 9.74 µM
- TGI [35]: > 36.6 µM
- GI50 [36]: > 22.7 µM
- TGI [36]: > 61 µM
- GI50 [37]: 11.5 µM
- TGI [37]: > 100 µM
- GI50 [38]: 17.1 µM
- TGI [38]: > 100 µM
- GI50 [39]: 2.39 µM
- TGI [39]: 28.8 µM
- GI50 [40]: 8.04 µM
- TGI [40]: 42.3 µM
- GI50 [41]: 25.5 µM
- TGI [41]: > 79.5 µM
- GI50 [42]: 6.79 µM
- TGI [42]: > 34.4 µM
- GI50 [43]: 23.2 µM
- TGI [43]: > 100 µM
- TGI [44]: 2.04 µM
- GI50 [45]: 23.8 µM
- TGI [45]: > 100 µM
- GI50 [46]: 15.8 µM
- TGI [46]: > 57.7 µM
- GI50 [47]: 9.53 µM
- TGI [47]: > 57.8 µM
- GI50 [48]: > 42.8 µM
- TGI [48]: > 100 µM
- GI50 [49]: 20.2 µM
- TGI [49]: 72 µM
- GI50 [50]: 4.66 µM
- TGI [50]: > 100 µM
- GI50 [51]: 3.4 µM
- TGI [51]: 14.8 µM
- GI50 [52]: 12.1 µM
- TGI [52]: > 75.9 µM
- GI50 [53]: 23 µM
- TGI [53]: > 100 µM
- GI50 [54]: 4.36 µM
- TGI [54]: > 43.7 µM
- GI50 [55]: 9.19 µM
- TGI [55]: > 56 µM

SMILES: COc1ccc2c(C3(c4cn(C)c5cc(OC)ccc45)C(=O)Nc4ccc(Cl)cc43)cn(C)c2c1
- GI50 [1]: 2.64 µM
- TGI [1]: 6.83 µM
- GI50 [2]: 3.9 µM
- TGI [2]: > 100 µM
- GI50 [3]: 3.38 µM
- TGI [3]: > 100 µM
- GI50 [4]: 4.19 µM
- TGI [4]: > 100 µM
- GI50 [5]: 4.67 µM
- TGI [5]: > 100 µM
- GI50 [7]: 2.97 µM
- TGI [7]: 6.55 µM
- GI50 [8]: 3.29 µM
- TGI [8]: 11.7 µM
- GI50 [9]: 4.71 µM
- TGI [9]: > 100 µM
- GI50 [10]: 4.2 µM
- TGI [10]: > 100 µM
- GI50 [11]: 5.81 µM
- TGI [11]: > 100 µM
- GI50 [12]: 3.65 µM
- TGI [12]: > 100 µM
- GI50 [13]: 4.5 µM
- TGI [13]: 88.7 µM
- GI50 [14]: 1.91 µM
- TGI [14]: 4.63 µM
- GI50 [15]: 3.67 µM
- TGI [15]: > 100 µM
- GI50 [16]: 3.09 µM
- TGI [16]: > 100 µM
- GI50 [17]: 3.4 µM
- TGI [17]: 21.9 µM
- GI50 [56]: 2.58 µM
- TGI [56]: 8.01 µM
- GI50 [19]: 3.35 µM
- TGI [19]: > 100 µM
- GI50 [20]: 3.15 µM
- TGI [20]: 19.7 µM
- GI50 [21]: 1.53 µM
- TGI [21]: 5.1 µM
- GI50 [22]: 1.48 µM
- TGI [22]: > 100 µM
- GI50 [23]: 4.84 µM
- TGI [23]: > 100 µM
- GI50 [24]: 1.95 µM
- TGI [24]: 4.73 µM
- GI50 [25]: 2.04 µM
- TGI [25]: > 100 µM
- GI50 [26]: 4.26 µM
- TGI [26]: 20.8 µM
- GI50 [27]: 2.29 µM
- TGI [27]: 8.56 µM
- GI50 [28]: 3.81 µM
- TGI [28]: > 100 µM
- GI50 [29]: 3.81 µM
- TGI [29]: > 100 µM
- GI50 [30]: 5.16 µM
- TGI [30]: > 100 µM
- GI50 [31]: 3.09 µM
- TGI [31]: > 100 µM
- GI50 [32]: 4.31 µM
- TGI [32]: 18.4 µM
- GI50 [33]: 3.02 µM
- TGI [33]: 37.4 µM
- GI50 [34]: 3.62 µM
- TGI [34]: 57.6 µM
- GI50 [35]: 3.89 µM
- TGI [35]: > 100 µM
- GI50 [36]: 5.37 µM
- TGI [36]: > 100 µM
- GI50 [37]: 3.94 µM
- TGI [37]: > 100 µM
- GI50 [38]: 9.19 µM
- TGI [38]: > 100 µM
- GI50 [39]: 5.26 µM
- TGI [39]: 83.4 µM
- GI50 [40]: 2.1 µM
- TGI [40]: > 100 µM
- GI50 [41]: 2.6 µM
- TGI [41]: > 100 µM
- GI50 [42]: 3.22 µM
- TGI [42]: 24 µM
- GI50 [43]: 5.07 µM
- TGI [43]: > 100 µM
- GI50 [44]: 6.35 µM
- TGI [44]: > 100 µM
- GI50 [45]: 3.49 µM
- TGI [45]: 25 µM
- GI50 [46]: 2.82 µM
- TGI [46]: > 100 µM
- GI50 [47]: 3.5 µM
- TGI [47]: 87.9 µM
- GI50 [48]: 2.51 µM
- TGI [48]: 7.77 µM
- GI50 [49]: 4.12 µM
- TGI [49]: 70 µM
- GI50 [50]: 4.5 µM
- TGI [50]: > 100 µM
- GI50 [51]: 2.5 µM
- TGI [51]: 7.87 µM
- GI50 [52]: 5.44 µM
- TGI [52]: > 100 µM
- GI50 [53]: 3.32 µM
- TGI [53]: > 100 µM
- GI50 [54]: 3.82 µM
- TGI [54]: 21.1 µM
- GI50 [55]: 3.99 µM
- TGI [55]: > 100 µM
- GI50 [57]: 3.38 µM
- TGI [57]: 12.7 µM

— PubChem BioAssay (NCI)
